Each molecule was assayed against T1, HDAC6 enzyme (Homo sapiens, UniProt Q9UBN7) (assay: HDAC6 enzyme inhibitory assay (HDAC-Glo I/II Assay kit)). Conditions: wells without enzyme = 100% inhibition.
T1 construct: HDAC6 enzyme prepared by transducing full length HDAC6 gene into Sf-9 insect cells; GST; purchased SignalChem; host or cells: Sf-9 insect cells
T1 sequence (Q9UBN7 1-1215): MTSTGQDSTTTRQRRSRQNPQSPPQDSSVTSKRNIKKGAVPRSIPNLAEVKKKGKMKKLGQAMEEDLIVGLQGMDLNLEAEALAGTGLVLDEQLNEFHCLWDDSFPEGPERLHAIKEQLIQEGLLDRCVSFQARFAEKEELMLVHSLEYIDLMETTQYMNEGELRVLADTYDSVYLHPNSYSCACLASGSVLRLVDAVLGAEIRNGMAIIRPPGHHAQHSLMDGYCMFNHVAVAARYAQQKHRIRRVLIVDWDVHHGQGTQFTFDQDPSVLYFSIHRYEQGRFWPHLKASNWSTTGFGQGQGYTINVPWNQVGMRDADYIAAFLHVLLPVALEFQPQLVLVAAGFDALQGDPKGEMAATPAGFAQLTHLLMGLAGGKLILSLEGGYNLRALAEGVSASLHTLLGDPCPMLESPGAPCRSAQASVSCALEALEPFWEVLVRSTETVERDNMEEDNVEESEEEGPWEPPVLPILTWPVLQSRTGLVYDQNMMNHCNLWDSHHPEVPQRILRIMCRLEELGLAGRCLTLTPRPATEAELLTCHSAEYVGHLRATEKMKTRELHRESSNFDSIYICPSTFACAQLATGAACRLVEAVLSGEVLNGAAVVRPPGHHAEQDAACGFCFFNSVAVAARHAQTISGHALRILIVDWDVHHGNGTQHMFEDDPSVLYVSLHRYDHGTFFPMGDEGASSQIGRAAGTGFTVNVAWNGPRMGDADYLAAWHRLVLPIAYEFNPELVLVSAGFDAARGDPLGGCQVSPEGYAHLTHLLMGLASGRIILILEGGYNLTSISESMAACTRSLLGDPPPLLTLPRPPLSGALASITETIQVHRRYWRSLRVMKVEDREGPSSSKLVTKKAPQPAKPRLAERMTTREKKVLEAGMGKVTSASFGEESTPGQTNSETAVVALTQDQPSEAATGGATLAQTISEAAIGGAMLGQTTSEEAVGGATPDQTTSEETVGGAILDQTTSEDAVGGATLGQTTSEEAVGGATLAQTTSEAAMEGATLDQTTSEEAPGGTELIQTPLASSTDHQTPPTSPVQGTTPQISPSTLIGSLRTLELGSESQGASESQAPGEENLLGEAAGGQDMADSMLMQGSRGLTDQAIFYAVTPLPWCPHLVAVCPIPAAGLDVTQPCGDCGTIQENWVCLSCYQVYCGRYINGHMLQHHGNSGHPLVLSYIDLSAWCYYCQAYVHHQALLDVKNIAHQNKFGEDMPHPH
Format: biochemical
Method in brief: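 Full-length GST-purified HDAC6 from Sf-9 cells preincubated with compound 60 min at room temperature in Tris-HCl pH 7.5 buffer with MgCl2, KCl, NaCl, glutathione, Tween-20. Substrate-developer reaction 20 min, luminescence read; no-enzyme wells set as 100% inhibition.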

In order of rising “HDAC6 inhibitory rate (%) (10 μM)” value:
1. O=C1c2cc(-c3nnc(C(F)F)o3)ccc2CN1[C@H](c1ccc(F)cc1)[C@@H](O)c1ccc(F)nc1 (single isomer, unassigned) [Example 132, 6-[5-(difluoromethyl)-1,3,4-oxadiazol-2-yl]-2-[(1R*,2S*)-1-(4-fluorophenyl)-2-(6-fluoropyridin-3-yl)-2-hydroxyethyl]-2,3-dihydro-1H-isoindol-1-one]  99%
2. O=C1c2cc(-c3nnc(C(F)F)o3)ccc2CN1[C@H](c1cnccn1)[C@@H](O)c1ccccc1 (single isomer, unassigned) [Example 128, 6-[5-(difluoromethyl)-1,3,4-oxadiazol-2-yl]-2-[(1R*,2S*)-2-hydroxy-2-phenyl-1-(pyrazin-2-yl)ethyl]-2,3-dihydro-1H-isoindol-1-one]  99%
3. O=C1c2cc(-c3nnc(C(F)F)o3)ccc2CN1[C@H](c1ccccn1)[C@@H](O)c1ccccc1 (single isomer, unassigned) [Example 103, 6-[5-(difluoromethyl)-1,3,4-oxadiazol-2-yl]-2-[(1R*,2S*)-2-hydroxy-2-phenyl-1-(pyridin-2-yl)ethyl]-2,3-dihydro-1H-isoindol-1-one]  100%

Same assay, conditions: wells without enzyme = 100% inhibition, 10 µM

In order of falling “HDAC6 inhibitory rate (%) (10 μM)” value:
1. O=C1c2cc(-c3nnc(C(F)F)o3)ccc2CN1[C@H](c1ccccn1)[C@@H](O)c1ccc(F)cc1 (single isomer, unassigned) [Example 37, 6-[5-(difluoromethyl)-1,3,4-oxadiazol-2-yl]-2-[(1R*,2S*)-2-(4-fluorophenyl)-2-hydroxy-1-(pyridin-2-yl)ethyl]-2,3-dihydro-1H-isoindol-1-one]  100%
2. O=C1c2cc(-c3nnc(C(F)F)o3)ccc2CN1[C@H](C1CC1)[C@@H](O)c1cccc(F)n1 (single isomer, unassigned) [Example 80, 2-[(1R*,2R*)-1-cyclopropyl-2-(6-fluoropyridin-2-yl)-2-hydroxyethyl]-6-[5-(difluoromethyl)-1,3,4-oxadiazol-2-yl]-2,3-dihydro-1H-isoindol-1-one]  100%
3. O=C1c2cc(-c3nnc(C(F)F)o3)ccc2CN1[C@H](c1ncccn1)[C@@H](O)c1cccc(F)c1 (single isomer, unassigned) [Example 69, 6-[5-(difluoromethyl)-1,3,4-oxadiazol-2-yl]-2-[(1R*,2S*)-2-(3-fluorophenyl)-2-hydroxy-1-(pyrimidin-2-yl)ethyl]-2,3-dihydro-1H-isoindol-1-one]  100%
4. O=C1c2cc(-c3nnc(C(F)F)o3)ccc2CN1[C@H](c1ccc(F)cn1)[C@@H](O)c1cccc(F)n1 (single isomer, unassigned) [Example 67, 6-[5-(difluoromethyl)-1,3,4-oxadiazol-2-yl]-2-[(1R*,2R*)-1-(5-fluoropyridin-2-yl)-2-(6-fluoropyridin-2-yl)-2-hydroxyethyl]-2,3-dihydro-1H-isoindol-1-one]  99%

Same assay, conditions: wells without enzyme = 100% inhibition, read-out: HDAC6 inhibitory rate (%) (10 μM)

In order of rising inhibition at 10 µM:
1. O=C1c2cc(-c3nnc(C(F)F)o3)ccc2CN1[C@H](c1ccccc1)[C@@H](O)c1ccccn1 (single isomer, unassigned) [Example 47, 6-[5-(difluoromethyl)-1,3,4-oxadiazol-2-yl]-2-[(1R*,2R*)-2-hydroxy-1-phenyl-2-(pyridin-2-yl)ethyl]-2,3-dihydro-1H-isoindol-1-one]  99%
2. O=C1c2cc(-c3nnc(C(F)F)o3)ccc2CN1[C@H](c1ccc(F)cc1)[C@@H](O)C1CC1 (racemic) [Example 19, 2-[(1RS,2SR)-2-cyclopropyl-1-(4-fluorophenyl)-2-hydroxyethyl]-6-[5-(difluoromethyl)-1,3,4-oxadiazol-2-yl]-2,3-dihydro-1H-isoindol-1-one]  99%
3. O=C1c2cc(-c3nnc(C(F)F)o3)ccc2CN1[C@H](C1CC1)[C@@H](O)c1cccc(F)n1 (single isomer, unassigned) [Example 79, 2-[(1R*,2R*)-1-cyclopropyl-2-(6-fluoropyridin-2-yl)-2-hydroxyethyl]-6-[5-(difluoromethyl)-1,3,4-oxadiazol-2-yl]-2,3-dihydro-1H-isoindol-1-one]  99%
4. O=C1c2cc(-c3nnc(C(F)F)o3)ccc2CN1[C@H](c1ccccn1)[C@@H](O)c1cccc(Cl)n1 (single isomer, unassigned) [Example 114, 2-[(1R*,2R*)-2-(6-chloropyridin-2-yl)-2-hydroxy-1-(pyridin-2-yl)ethyl]-6-[5-(difluoromethyl)-1,3,4-oxadiazol-2-yl]-2,3-dihydro-1H-isoindol-1-one]  99%
5. O=C1c2cc(-c3nnc(C(F)F)o3)ccc2CN1[C@H](c1cccnn1)[C@@H](O)c1ccc(Cl)cc1 (single isomer, unassigned) [Example 111, 2-[(1R*,2S*)-2-(4-chlorophenyl)-2-hydroxy-1-(pyridazin-3-yl)ethyl]-6-[5-(difluoromethyl)-1,3,4-oxadiazol-2-yl]-2,3-dihydro-1H-isoindol-1-one]  99%
6. O=C1c2cc(-c3nnc(C(F)F)o3)ccc2CN1[C@@H](c1ccccc1)[C@H](O)c1ccccc1 [Example 14, 6-[5-(difluoromethyl)-1,3,4-oxadiazol-2-yl]-2-[(1S,2R)-2-hydroxy-1,2-diphenylethyl]-2,3-dihydro-1H-isoindol-1-one]  100%
7. O=C1c2cc(-c3nnc(C(F)F)o3)ccc2CN1[C@H](c1ncccn1)[C@@H](O)c1ccc(F)c(F)c1 (single isomer, unassigned) [Example 94, 6-[5-(difluoromethyl)-1,3,4-oxadiazol-2-yl]-2-[(1R*,2S*)-2-(3,4-difluorophenyl)-2-hydroxy-1-(pyrimidin-2-yl)ethyl]-2,3-dihydro-1H-isoindol-1-one]  100%
8. O=C1c2cc(-c3nnc(C(F)F)o3)ccc2CN1[C@H](c1cccc(F)c1)[C@@H](O)c1ccc(F)cc1 (racemic) [Example 21, 6-[5-(difluoromethyl)-1,3,4-oxadiazol-2-yl]-2-[(1RS,2SR)-1-(3-fluorophenyl)-2-(4-fluorophenyl)-2-hydroxyethyl]-2,3-dihydro-1H-isoindol-1-one]  100%
9. O=C1c2cc(-c3nnc(C(F)F)o3)ccc2CN1[C@H](c1ccccn1)[C@@H](O)c1ccccc1 (single isomer, unassigned) [Example 102, 6-[5-(difluoromethyl)-1,3,4-oxadiazol-2-yl]-2-[(1R*,2S*)-2-hydroxy-2-phenyl-1-(pyridin-2-yl)ethyl]-2,3-dihydro-1H-isoindol-1-one]  100%
10. O=C1c2cc(-c3nnc(C(F)F)o3)ccc2CN1[C@H](c1cccnn1)[C@@H](O)c1ccc(F)c(F)c1 (single isomer, unassigned) [Example 108, 6-[5-(difluoromethyl)-1,3,4-oxadiazol-2-yl]-2-[(1R*,2S*)-2-(3,4-difluorophenyl)-2-hydroxy-1-(pyridazin-3-yl)ethyl]-2,3-dihydro-1H-isoindol-1-one]  100%
11. O=C1c2cc(-c3nnc(C(F)F)o3)ccc2CN1[C@H](C1CC1)[C@@H](O)c1ncccn1 (single isomer, unassigned) [Example 73, 2-[(1R*,2R*)-1-cyclopropyl-2-hydroxy-2-(pyrimidin-2-yl)ethyl]-6-[5-(difluoromethyl)-1,3,4-oxadiazol-2-yl]-2,3-dihydro-1H-isoindol-1-one]  100%
12. O=C1c2cc(-c3nnc(C(F)F)o3)ccc2CN1[C@H](c1cccc(F)n1)[C@@H](O)c1ccc(F)cn1 (relative stereo) [Example 125, 6-[5-(difluoromethyl)-1,3,4-oxadiazol-2-yl]-2-[(1R*,2R)-2-(5-fluoropyridin-2-yl)-1-(6-fluoropyridin-2-yl)-2-hydroxyethyl]-2,3-dihydro-1H-isoindol-1-one]  101%
13. O=C1c2cc(-c3nnc(C(F)F)o3)ccc2CN1[C@H](c1ccccn1)[C@@H](O)c1cccc(F)n1 [Example 7, 6-[5-(difluoromethyl)-1,3,4-oxadiazol-2-yl]-2-[(1R,2R)-2-(6-fluoropyridin-2-yl)-2-hydroxy-1-(pyridin-2-yl)ethyl]-2,3-dihydro-1H-isoindol-1-one]  102%

Reference: patent publication US12384770B2, “Heterocyclic compound” (Takeda Pharmaceutical Company Limited, priority 2019, dated 2025)
